# Experimental data: patent US9656988B2 (Pharmacyclics LLC, priority 2013, dated 2017)
# pIC50: −log10 of the molar value. Read-outs that look alike come from different tables or passages of the source.
# Target: BTK (Homo sapiens (Human), UniProt Q06187)
# Assay: Btk in vitro inhibitory activity (one of Method A TR-FRET, Method B electrophoretic mobility shift, Method C radiometric filter binding)
# Assay type: biochemical
# [1] = determined using one of the methods of Example 355a, 355b and 355c, read-out: BTK IC50
# BTK, sequence (Q06187 whole entry): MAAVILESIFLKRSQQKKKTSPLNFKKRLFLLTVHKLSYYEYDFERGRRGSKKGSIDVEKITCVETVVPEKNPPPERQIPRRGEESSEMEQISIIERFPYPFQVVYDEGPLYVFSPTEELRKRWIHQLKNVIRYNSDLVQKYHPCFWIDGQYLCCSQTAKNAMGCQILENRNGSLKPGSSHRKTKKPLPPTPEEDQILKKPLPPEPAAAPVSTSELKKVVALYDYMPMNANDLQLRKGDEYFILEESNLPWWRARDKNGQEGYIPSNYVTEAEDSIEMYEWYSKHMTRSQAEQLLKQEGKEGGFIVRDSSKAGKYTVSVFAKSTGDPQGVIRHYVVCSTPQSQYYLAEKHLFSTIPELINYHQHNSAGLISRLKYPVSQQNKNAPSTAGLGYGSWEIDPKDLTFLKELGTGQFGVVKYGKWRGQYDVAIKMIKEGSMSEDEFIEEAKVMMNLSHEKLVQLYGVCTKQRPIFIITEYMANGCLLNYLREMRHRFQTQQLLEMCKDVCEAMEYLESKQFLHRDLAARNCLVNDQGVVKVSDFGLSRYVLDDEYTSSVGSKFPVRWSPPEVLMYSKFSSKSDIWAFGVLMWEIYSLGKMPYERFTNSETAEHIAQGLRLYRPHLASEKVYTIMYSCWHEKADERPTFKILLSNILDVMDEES
SMILES,pIC50 [1],pIC50 (read-out: Btk (IC50)),pIC50 (Btk (IC50))
"COc1ccc(C(=O)N[C@@H]2CCCN(c3cnc(C(N)=O)c(Nc4ccc(N5CCCCC5=O)cc4)n3)C2)cc1 [Example 128, (R)-5-(3-(4-methoxybenzamido)piperidin-1-yl)-3-(4-(2-oxopiperidin-1-yl)phenylamino)pyrazine-2-carboxamide]",> 8.00,> 8.00,–
"CN1CCN(c2ccc(Nc3nc(N4CCC[C@@H](NC(=O)c5ccc(C(C)(C)C)cc5)C4)cnc3C(N)=O)cc2)CC1 [Example 129, (R)-5-(3-(4-tert-butylbenzamido)piperidin-1-yl)-3-(4-(4-methylpiperazin-1-yl)phenylamino)pyrazine-2-carboxamide]",> 8.00,> 8.00,–
"CN1CCC(c2ccc(Nc3nc(N4CCC[C@@H](NC(=O)c5ccc(C(C)(C)C)cc5)C4)cnc3C(N)=O)cc2)CC1 [Example 130, (R)-5-(3-(4-tert-butylbenzamido)piperidin-1-yl)-3-(4-(1-methylpiperidin-4-yl)phenylamino)pyrazine-2-carboxamide]",> 8.00,> 8.00,–
"CCN1CCC(c2ccc(Nc3nc(N4CCC[C@@H](NC(=O)c5ccc(OC)cc5)C4)cnc3C(N)=O)cc2)CC1 [Example 132, (R)-3-(4-(1-ethylpiperidin-4-yl)phenylamino)-5-(3-(4-methoxybenzamido)piperidin-1-yl)pyrazine-2-carboxamide]",> 8.00,> 8.00,–
"COc1ccc(C(=O)N[C@@H]2CCCN(c3cnc(C(N)=O)c(Nc4ccc(C5CCN(C6CC6)CC5)cc4)n3)C2)cc1 [Example 133, (R)-3-(4-(1-cyclopropylpiperidin-4-yl)phenylamino)-5-(3-(4-methoxybenzamido)piperidin-1-yl)pyrazine-2-carboxamide]",> 8.00,> 8.00,–
"COc1ccc(C(=O)N[C@@H]2CCCN(c3cnc(C(N)=O)c(Nc4ccc(C5CCN(C(C)C)CC5)cc4)n3)C2)cc1 [Example 134, (R)-3-(4-(1-isopropylpiperidin-4-yl)phenylamino)-5-(3-(4-methoxybenzamido)piperidin-1-yl)pyrazine-2-carboxamide]",> 8.00,> 8.00,–
"COc1ccc(C(=O)N[C@@H]2CCCN(c3cnc(C(N)=O)c(Nc4ccc(C5CCN(C6CCCC6)CC5)cc4)n3)C2)cc1 [Example 135, (R)-3-(4-(1-cyclopentylpiperidin-4-yl)phenylamino)-5-(3-(4-methoxybenzamido)piperidin-1-yl)pyrazine-2-carboxamide]",> 8.00,> 8.00,–
"COc1ccc(C(=O)N[C@@H]2CCCN(c3cnc(C(N)=O)c(Nc4ccc(C5CCN(CC#N)CC5)cc4)n3)C2)cc1 [Example 136, (R)-3-(4-(1-(cyanomethyl)piperidin-4-yl)phenylamino)-5-(3-(4-methoxybenzamido)piperidin-1-yl)pyrazine-2-carboxamide]",7.00 to 8.00,7.00 to 8.00,–
"COc1ccc(C(=O)N[C@@H]2CCCN(c3cnc(C(N)=O)c(Nc4ccc(C5CCN(CC(F)(F)F)CC5)cc4)n3)C2)cc1 [Example 137, (R)-5-(3-(4-methoxybenzamido)piperidin-1-yl)-3-(4-(1-(2,2,2-trifluoroethyl)piperidin-4-yl)phenylamino)pyrazine-2-carboxamide]",7.00 to 8.00,–,7.00 to 8.00
"COc1ccc(C(=O)N[C@@H]2CCCN(c3cnc(C(N)=O)c(Nc4ccc(C5CCN(C=O)CC5)cc4)n3)C2)cc1 [Example 138, (R)-3-(4-(1-formylpiperidin-4-yl)phenylamino)-5-(3-(4-methoxybenzamido)piperidin-1-yl)pyrazine-2-carboxamide]",> 8.00,> 8.00,–
"COc1ccc(C(=O)N[C@@H]2CCCN(c3cnc(C(N)=O)c(Nc4ccc(C5CCN(C(C)=O)CC5)cc4)n3)C2)cc1 [Example 139, (R)-3-(4-(1-acetylpiperidin-4-yl)phenylamino)-5-(3-(4-methoxybenzamido)piperidin-1-yl)pyrazine-2-carboxamide]",> 8.00,> 8.00,–
"CCC(=O)N1CCC(c2ccc(Nc3nc(N4CCC[C@@H](NC(=O)c5ccc(OC)cc5)C4)cnc3C(N)=O)cc2)CC1 [Example 140, (R)-5-(3-(4-methoxybenzamido)piperidin-1-yl)-3-(4-(1-propionylpiperidin-4-yl)phenylamino)pyrazine-2-carboxamide]",> 8.00,–,–
"COc1ccc(C(=O)N[C@@H]2CCCN(c3cnc(C(N)=O)c(Nc4ccc(C5CCN(C(=O)CC#N)CC5)cc4)n3)C2)cc1 [Example 141, (R)-3-(4-(1-(2-cyanoacetyl)piperidin-4-yl)phenylamino)-5-(3-(4-methoxybenzamido)piperidin-1-yl)pyrazine-2-carboxamide]",> 8.00,–,–
"COc1ccc(C(=O)N[C@@H]2CCCN(c3cnc(C(N)=O)c(Nc4ccc(N5CCC(C(=O)N(C)C)CC5)cc4)n3)C2)cc1 [Example 144, (R)-3-(4-(4-(dimethylcarbamoyl)piperidin-1-yl)phenylamino)-5-(3-(4-methoxybenzamido)piperidin-1-yl)pyrazine-2-carboxamide]",> 8.00,–,> 8.00
"CS(=O)(=O)c1ccc(Nc2nc(N3CCC[C@@H](NC(=O)N4CCCCC4)C3)cnc2C(N)=O)cc1 [Example 145, (R)-3-(4-(methylsulfonyl)phenylamino)-5-(3-(piperidine-1-carboxamido)piperidin-1-yl)pyrazine-2-carboxamide]",> 8.00,> 8.00,–
"CN1CCN(c2ccc(Nc3nc(N4CCC[C@@H](NC(=O)N5CCCCC5)C4)cnc3C(N)=O)cc2)CC1 [Example 146, (R)-3-(4-(4-methylpiperazin-1-yl)phenylamino)-5-(3-(piperidine-1-carboxamido)piperidin-1-yl)pyrazine-2-carboxamide]",7.00 to 8.00,–,7.00 to 8.00
"CN1CCC(c2ccc(Nc3nc(N4CCC[C@@H](NC(=O)N5CCCCC5)C4)cnc3C(N)=O)cc2)CC1 [Example 147, (R)-3-(4-(1-methylpiperidin-4-yl)phenylamino)-5-(3-(piperidine-1-carboxamido)piperidin-1-yl)pyrazine-2-carboxamide]",> 8.00,> 8.00,–
"CN(C)C(=O)N[C@@H]1CCCN(c2cnc(C(N)=O)c(Nc3ccc(S(C)(=O)=O)cc3)n2)C1 [Example 151, (R)-5-(3-(3,3-dimethylureido)piperidin-1-yl)-3-(4-(methylsulfonyl)phenylamino)pyrazine-2-carboxamide]",> 8.00,> 8.00,–
"CN(C)C(=O)N[C@@H]1CCCN(c2cnc(C(N)=O)c(Nc3ccc(C4CCN(C5CCCC5)CC4)cc3)n2)C1 [Example 155, (R)-3-(4-(1-cyclopentylpiperidin-4-yl)phenylamino)-5-(3-(3,3-dimethylureido)piperidin-1-yl)pyrazine-2-carboxamide]",> 8.00,> 8.00,–

# Next, values leading:
pIC50 [1],pIC50 (read-out: Btk (IC50)),pIC50 (Btk (IC50)),SMILES
> 8.00,> 8.00,–,"COc1ccc(C(=O)N[C@@H]2CCCN(c3cnc(C(N)=O)c(Nc4ccc(C5CCN(C)CC5)cc4)n3)C2)cc1 [Example 131, (R)-5-(3-(4-methoxybenzamido)piperidin-1-yl)-3-(4-(1-methylpiperidin-4-yl)phenylamino)pyrazine-2-carboxamide]"
7.00 to 8.00,–,7.00 to 8.00,"COc1ccc(C(=O)N[C@@H]2CCCN(c3cnc(C(N)=O)c(Nc4ccc(C5CCN(C(=O)N(C)C)CC5)cc4)n3)C2)cc1 [Example 142, (R)-3-(4-(1-(dimethylcarbamoyl)piperidin-4-yl)phenylamino)-5-(3-(4-methoxybenzamido)piperidin-1-yl)pyrazine-2-carboxamide]"
7.00 to 8.00,–,7.00 to 8.00,"COc1ccc(C(=O)N[C@@H]2CCCN(c3cnc(C(N)=O)c(Nc4ccc(C5CCN(S(C)(=O)=O)CC5)cc4)n3)C2)cc1 [Example 143, (R)-5-(3-(4-methoxybenzamido)piperidin-1-yl)-3-(4-(1-(methylsulfonyl)piperidin-4-yl)phenylamino)pyrazine-2-carboxamide]"
> 8.00,> 8.00,–,"NC(=O)c1ncc(N2CCC[C@@H](NC(=O)N3CCCCC3)C2)nc1Nc1ccc(C2CCN(C=O)CC2)cc1 [Example 148, (R)-3-(4-(1-formylpiperidin-4-yl)phenylamino)-5-(3-(piperidine-1-carboxamido)piperidin-1-yl)pyrazine-2-carboxamide]"
7.00 to 8.00,–,7.00 to 8.00,"CCC(=O)N1CCC(c2ccc(Nc3nc(N4CCC[C@@H](NC(=O)N5CCCCC5)C4)cnc3C(N)=O)cc2)CC1 [Example 149, (R)-5-(3-(piperidine-1-carboxamido)piperidin-1-yl)-3-(4-(1-propionylpiperidin-4-yl)phenylamino)pyrazine-2-carboxamide]"
> 8.00,> 8.00,–,"N#CCC(=O)N1CCC(c2ccc(Nc3nc(N4CCC[C@@H](NC(=O)N5CCCCC5)C4)cnc3C(N)=O)cc2)CC1 [Example 150, (R)-3-(4-(1-(2-cyanoacetyl)piperidin-4-yl)phenylamino)-5-(3-(piperidine-1-carboxamido)piperidin-1-yl)pyrazine-2-carboxamide]"
> 8.00,> 8.00,–,"CCC(=O)N1CCC(c2ccc(Nc3nc(N4CCC[C@@H](NC(=O)N(C)C)C4)cnc3C(N)=O)cc2)CC1 [Example 152, (R)-5-(3-(3,3-dimethylureido)piperidin-1-yl)-3-(4-(1-propionylpiperidin-4-yl)phenylamino)pyrazine-2-carboxamide]"
> 8.00,> 8.00,–,"CN(C)C(=O)N[C@@H]1CCCN(c2cnc(C(N)=O)c(Nc3ccc(C4CCN(C(=O)CC#N)CC4)cc3)n2)C1 [Example 153, (R)-3-(4-(1-(2-cyanoacetyl)piperidin-4-yl)phenylamino)-5-(3-(3,3-dimethylureido)piperidin-1-yl)pyrazine-2-carboxamide]"
> 8.00,–,–,"CN(C)C(=O)N[C@@H]1CCCN(c2cnc(C(N)=O)c(Nc3ccc(C4CCNCC4)cc3)n2)C1 [Example 154, (R)-5-(3-(3,3-dimethylureido)piperidin-1-yl)-3-(4-(piperidin-4-yl)phenylamino)pyrazine-2-carboxamide]"
